The record followed here is patent JP2022155560A, “スガマデクスの光分解抑制方法” (Fuji Pharma Co Ltd, priority 2021, dated 2022).

The nature of data set [1]: Photostability of sugammadex sodium solution in glass containers with or without light-cutting film (Example 1, HPLC). Type of data set: physicochemical. As to conditions: for total amount of substances other than sugammadex: n=3.
Data set [2] is described as follows: Formation of sugammadex photodegradant (disulfide, printed ジスルフィド体) on light irradiation (Example 2, HPLC). As to conditions: after light irradiation, n=3. It counts as physicochemical.
[3] abbreviates: after light irradiation (1,200,000 lux·h, 280 W·h/m2), UVcut 500 film compared with UVcut 400 film.
The mark [4] stands for this setting: after light irradiation (1,200,000 lux·h, 280 W·h/m2), film-wrapped samples (UVcut 400 or UVcut 500), compared with no film wrapping.

In the case of `O=C([O-])CCSC[C@H]1O[C@@H]2O[C@H]3[C@H](O)[C@@H](O)[C@@H](O[C@H]4[C@H](O)[C@@H](O)[C@@H](O[C@H]5[C@H](O)[C@@H](O)[C@@H](O[C@H]6[C@H](O)[C@@H](O)[C@@H](O[C@H]7[C@H](O)[C@@H](O)[C@@H](O[C@H]8[C@H](O)[C@@H](O)[C@@H](O[C@H]9[C@H](O)[C@@H](O)[C@@H](O[C@H]1[C@H](O)[C@H]2O)O[C@@H]9CSCCC(=O)[O-])O[C@@H]8CSCCC(=O)[O-])O[C@@H]7CSCCC(=O)[O-])O[C@@H]6CSCCC(=O)[O-])O[C@@H]5CSCCC(=O)[O-])O[C@@H]4CSCCC(=O)[O-])O[C@@H]3CSCCC(=O)[O-].[Na+].[Na+].[Na+].[Na+].[Na+].[Na+].[Na+].[Na+]` [スガマデクス, octakis(6-S-(2-carboxyethyl)-6-thio)cyclomaltooctaose octasodium salt], the “effect of suppressing increase of photodegradation products” value in data set [1] (setting [3]) is reported as “顕著に高かった”. The purity of sugammadex entry in data set [1] (setting [3]) is recorded as “純度が高く”. Besides, in data set [1] (setting [4]), the “increase in total amount of substances other than sugammadex” value was “増大が抑えられており”. The “residual rate of sugammadex” value in data set [1] (setting [4]) is listed as “残存率が高かった”. Moreover, the “total amount of substances other than sugammadex” value worked out at 5.12% in data set [1] (after light irradiation (1,200,000 lux·h, 280 W·h/m2), no film wrapping) and 2.14% in data set [1] (before light irradiation, no film wrapping, 100 mg/mL aqueous solution, pH 7-8). In addition, the photodegradation of sugammadex result in data set [1] (chromatograms before vs after light irradiation, no film wrapping) is given as “光照射により分解されたことが確認された”. Moreover, the “formation of sugammadex disulfoxide (スガマデクスのジスルフィド体 in the source)” value is reported as “フィルム包装なしのサンプルの半分程度” in data set [2] (light up to 400 nm cut, relative to sample without film wrapping) and “ほとんど生成されていなかった” in data set [2] (light up to 500 nm cut).
